Experimental data reported in PubChem BioAssay (NCI).
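48-hour exposure; five concentrations; linearly interpolated endpoints. The concentration for 50% growth inhibition is given as GI50. Definition used: TGI = concentration required for complete inhibition of growth.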

Legend:
Assay in all cases: growth of human tumour cells (NCI), 48 h
HCT-15 colon = test system: HCT-15 colon
SK-MEL-28 melanoma = test system: SK-MEL-28 melanoma
SK-MEL-2 melanoma = test system: SK-MEL-2 melanoma
COLO 205 colon = test system: COLO 205 colon
M14 melanoma = test system: M14 melanoma
OVCAR-3 ovarian = test system: OVCAR-3 ovarian
SF-268 CNS = test system: SF-268 CNS
SF-295 CNS = test system: SF-295 CNS
RPMI-8226 leukemia = test system: RPMI-8226 leukemia
MDA-MB-231 breast = test system: MDA-MB-231 breast
KM12 colon = test system: KM12 colon
HL-60(TB) leukemia = test system: HL-60(TB) leukemia
SNB-19 CNS = test system: SNB-19 CNS
HCT-116 colon = test system: HCT-116 colon
OVCAR-5 ovarian = test system: OVCAR-5 ovarian
A549 NSCLC = test system: A549 NSCLC
LOX IMVI melanoma = test system: LOX IMVI melanoma
SW-620 colon = test system: SW-620 colon
HS 578T breast = test system: HS 578T breast
MALME-3M melanoma = test system: MALME-3M melanoma
MOLT-4 leukemia = test system: MOLT-4 leukemia
SK-OV-3 ovarian = test system: SK-OV-3 ovarian
K-562 leukemia = test system: K-562 leukemia
NCI/ADR-RES ovarian = test system: NCI/ADR-RES ovarian
HOP-62 NSCLC = test system: HOP-62 NSCLC
DU-145 prostate = test system: DU-145 prostate
HCC-2998 colon = test system: HCC-2998 colon
HOP-92 NSCLC = test system: HOP-92 NSCLC
SR leukemia = test system: SR leukemia
UACC-257 melanoma = test system: UACC-257 melanoma
SF-539 CNS = test system: SF-539 CNS
SN12C renal = test system: SN12C renal
MDA-MB-435 = test system: MDA-MB-435
UO-31 renal = test system: UO-31 renal
A498 renal = test system: A498 renal
SK-MEL-5 melanoma = test system: SK-MEL-5 melanoma
EKVX NSCLC = test system: EKVX NSCLC
ACHN renal = test system: ACHN renal
U251 CNS = test system: U251 CNS
HT29 colon = test system: HT29 colon
NCI-H460 lung = test system: NCI-H460 lung
IGROV1 ovarian = test system: IGROV1 ovarian
T-47D breast = test system: T-47D breast
SNB-75 CNS = test system: SNB-75 CNS
TK-10 renal = test system: TK-10 renal
786-0 renal = test system: 786-0 renal
NCI-H522 lung = test system: NCI-H522 lung
BT-549 breast = test system: BT-549 breast
NCI-H23 lung = test system: NCI-H23 lung
CAKI-1 renal = test system: CAKI-1 renal
MCF7 breast = test system: MCF7 breast
PC-3 prostate = test system: PC-3 prostate
OVCAR-4 ovarian = test system: OVCAR-4 ovarian
RXF 393 renal = test system: RXF 393 renal
OVCAR-8 ovarian = test system: OVCAR-8 ovarian
CCRF-CEM leukemia = test system: CCRF-CEM leukemia
UACC-62 melanoma = test system: UACC-62 melanoma
NCI-H226 lung = test system: NCI-H226 lung

## CCCC(=O)OCC1OC(n2cnc3c(=S)nc(N)[nH]c32)C(OC(=O)CCC)C1OC(=O)CCC (stereo unspecified)
HCT-15 colon
  GI50: 7.6 µM
  TGI: > 100 µM
SK-MEL-28 melanoma
  GI50: 23.6 µM
  TGI: 98 µM
SK-MEL-2 melanoma
  GI50: 3.61 µM
  TGI: > 44.5 µM
COLO 205 colon
  GI50: 4.73 µM
  TGI: 14.6 µM
M14 melanoma
  GI50: 1.75 µM
  TGI: 9.32 µM
OVCAR-3 ovarian
  GI50: 2.08 µM
  TGI: 6.19 µM
SF-268 CNS
  GI50: 4.1 µM
  TGI: > 100 µM
SF-295 CNS
  GI50: 0.906 µM
  TGI: > 25 µM
RPMI-8226 leukemia
  GI50: 3.97 µM
  TGI: 57.6 µM
MDA-MB-231 breast
  GI50: 4.42 µM
  TGI: > 100 µM
KM12 colon
  GI50: 3.76 µM
  TGI: 22 µM
HL-60(TB) leukemia
  GI50: 5.27 µM
  TGI: > 57.6 µM
SNB-19 CNS
  GI50: 27 µM
  TGI: > 100 µM
HCT-116 colon
  GI50: 2.72 µM
  TGI: 19.8 µM
OVCAR-5 ovarian
  GI50: 3.06 µM
  TGI: > 85.5 µM
A549 NSCLC
  GI50: 25.2 µM
  TGI: > 100 µM
LOX IMVI melanoma
  GI50: 0.574 µM
  TGI: > 37 µM
SW-620 colon
  GI50: 5.68 µM
  TGI: > 77.7 µM
HS 578T breast
  GI50: 12.5 µM
  TGI: > 95.7 µM
MALME-3M melanoma
  GI50: 1.66 µM
  TGI: 36.5 µM
MOLT-4 leukemia
  GI50: 3.93 µM
  TGI: > 85.3 µM
SK-OV-3 ovarian
  GI50: 1.56 µM
  TGI: 9.94 µM
K-562 leukemia
  GI50: 3.92 µM
  TGI: > 100 µM
NCI/ADR-RES ovarian
  GI50: 5.41 µM
  TGI: > 100 µM
HOP-62 NSCLC
  GI50: 2.05 µM
  TGI: 15 µM
DU-145 prostate
  GI50: 2.54 µM
  TGI: 51.3 µM
HCC-2998 colon
  GI50: 2.52 µM
  TGI: 23.6 µM
HOP-92 NSCLC
  GI50: 1.4 µM
  TGI: > 48.3 µM
SR leukemia
  GI50: 1.03 µM
  TGI: 36.3 µM
UACC-257 melanoma
  GI50: 8.61 µM
  TGI: > 100 µM
SF-539 CNS
  GI50: 2.6 µM
  TGI: 18.4 µM
SN12C renal
  GI50: 3.81 µM
  TGI: > 100 µM
MDA-MB-435
  GI50: 3.41 µM
  TGI: 46.9 µM
UO-31 renal
  GI50: 3.99 µM
  TGI: > 95.5 µM
A498 renal
  GI50: 2.98 µM
  TGI: > 35.9 µM
SK-MEL-5 melanoma
  GI50: 6.43 µM
  TGI: 19.5 µM
EKVX NSCLC
  GI50: 5.36 µM
  TGI: > 100 µM
ACHN renal
  GI50: 4.96 µM
  TGI: > 68 µM
U251 CNS
  GI50: 13.3 µM
  TGI: > 100 µM
HT29 colon
  GI50: 5.63 µM
  TGI: 39.9 µM
NCI-H460 lung
  GI50: 3.85 µM
  TGI: 19.3 µM
IGROV1 ovarian
  GI50: 5.93 µM
  TGI: 45.8 µM
T-47D breast
  GI50: 3.37 µM
  TGI: 23 µM
SNB-75 CNS
  GI50: 1.26 µM
  TGI: 12.2 µM
TK-10 renal
  GI50: 1.91 µM
  TGI: 16.4 µM
786-0 renal
  GI50: 2.92 µM
  TGI: 14.7 µM
NCI-H522 lung
  GI50: 2.58 µM
  TGI: 14.2 µM
BT-549 breast
  GI50: 2.55 µM
  TGI: 29.3 µM
NCI-H23 lung
  GI50: 4.01 µM
  TGI: 33 µM
CAKI-1 renal
  GI50: 2.4 µM
  TGI: > 47.5 µM
MCF7 breast
  GI50: 2.79 µM
  TGI: 23.4 µM
PC-3 prostate
  GI50: 3.42 µM
  TGI: > 100 µM
OVCAR-4 ovarian
  GI50: 2.73 µM
  TGI: 35.8 µM
RXF 393 renal
  GI50: 4.89 µM
  TGI: 24.2 µM
OVCAR-8 ovarian
  GI50: 4.72 µM
  TGI: > 100 µM
CCRF-CEM leukemia
  GI50: 2.26 µM
  TGI: > 27.6 µM
UACC-62 melanoma
  GI50: 2.81 µM
  TGI: 16 µM
NCI-H226 lung
  GI50: 5.47 µM
  TGI: > 100 µM
